Measured values: patent US20250002455A1, “NEW N-PHENYLPYRROLAMIDE INHIBITORS OF DNA GYRASE AND TOPOISOMERASE IV WITH ANTIBACTERIAL ACTIVITY” (priority 2020, published 2025)
≈ marks a conversion by molar mass, not a printed value. Like-named read-outs stand apart in the source and are kept apart here.

Legend:
E. coli topoisomerase IV = biological target: T1, E. coli topoisomerase IV (Escherichia coli, UniProt P20083); experiment: biochemical; conditions: for remaining activity at 10 µM: 10 μM compound
T1 construct: purchased Inspiralis
Procedure: Inhibitory activities for compounds of the present invention were determined on E. coli and S. aureus DNA gyrase and topoisomerase IV in an assay from Inspiralis on streptavidin-coated 96-well microtiter plates from Thermo scientific Pierce. […] After washing off the unbound oligonucleotide, the enzyme test was performed. […] Reaction solutions were incubated at 37° C. for 30 min. After that, the TF buffer (50 mM NaOAc with pH 5.0, 50 mM NaCl and 50 mM MgCl2) was added to terminate the enzymatic reaction. After additional incubation for 30 min at rt, during which biotin-oligonucleotide-plasmid triplex was formed, the unbound plasmid was washed off using TF buffer and SybrGOLD in T10 buffer (10 mM Tris HCl with pH 8.0 and 1 mM EDTA) was added. […] Initial screening was done at 100 or 10 nM concentration of inhibitors against E. coli DNA gyrase or 1 μM or 100 nM concentration against S. aureus DNA gyrase and E. coli and S. aureus topo IV. […] GraphPad Prism 6.0 software was used to calculate the IC50 values. The result is given as the average value of three independent measurements. […] Chemoth.

E. coli DNA gyrase = biological target: T2, E. coli DNA gyrase (Escherichia coli, UniProt P0AES6); experiment: biochemical
T2 construct: purchased Inspiralis
Procedure: (§1) Inhibitory activities for compounds of the present invention were determined on E. coli and S. aureus DNA gyrase and topoisomerase IV in an assay from Inspiralis on streptavidin-coated 96-well microtiter plates from Thermo scientific Pierce. […] After washing off the unbound oligonucleotide, the enzyme test was performed. […] Reaction solutions were incubated at 37° C. for 30 min. After that, the TF buffer (50 mM NaOAc with pH 5.0, 50 mM NaCl and 50 mM MgCl2) was added to terminate the enzymatic reaction. After additional incubation for 30 min at rt, during which biotin-oligonucleotide-plasmid triplex was formed, the unbound plasmid was washed off using TF buffer and SybrGOLD in T10 buffer (10 mM Tris HCl with pH 8.0 and 1 mM EDTA) was added. […] GraphPad Prism 6.0 software was used to calculate the IC50 values. The result is given as the average value of three independent measurements. […] Chemoth.

S. aureus DNA gyrase = biological target: T3, S. aureus DNA gyrase (Staphylococcus aureus, UniProt P0A0K8); experiment: biochemical
T3 construct: purchased Inspiralis
Procedure: as §1

P. aeruginosa ATCC 27853 = experiment: Microbroth dilution MIC (CLSI); format: cell-based; conditions: Pseudomonas aeruginosa, ATCC27853
Procedure: (§2) The chemical entities described in the present invention were assessed for their antimicrobial activity using a microbroth dilution assay as recommended by the CLSI (Methods for Dilution Antimicrobial Susceptibility Tests for Bacteria That Grow Aerobically, and Methods for Antimicrobial Susceptibility Testing of Anaerobic Bacteria, Clinical and Laboratory Standards Institute, Document M07-A8, and M11-A8, Wayne, PA 19087, USA, 2012.). Compounds were dissolved by using 100% DMSO. Serial two-fold dilutions of each compound were made by using 100% DMSO as the diluent.
(§3) A library of Gram-negative and Gram-positive microbes and their drug- and multidrug-resistant variants were employed as test organisms. The MIC (minimum inhibitory concentration) was determined as the lowest concentration of an individual drug that lead to no visible growth.

S. aureus ATCC 29213 = experiment: Microbroth dilution MIC (CLSI); format: cell-based; conditions: Staphylococcus aureus, ATCC29213
Procedure: as §2, §3

A. baumannii ATCC 17978 = experiment: Microbroth dilution MIC (CLSI); format: cell-based; conditions: Acinetobacter baumannii, ATCC17978
Procedure: as §2, §3

[1] = tested on: S. aureus ATCC 700699 (VISA); experiment: Microbroth dilution MIC (CLSI); format: cell-based; conditions: Staphylococcus aureus
Procedure: as §2, §3

E. faecium ATCC 700221 = experiment: Microbroth dilution MIC (CLSI); format: cell-based; conditions: Enterococcus faecium, ATCC700221
Procedure: as §2, §3

[2] = tested on: E. spp. cloacae ATCC 13047; experiment: Microbroth dilution MIC (CLSI); format: cell-based; conditions: Enterobacter cloacae, ATCC13047
Procedure: as §2, §3

E. coli ATCC 25922 = experiment: Microbroth dilution MIC (CLSI); format: cell-based; conditions: Escherichia coli, ATCC25922
Procedure: as §2, §3

[3] = tested on: S. aureus ATCC 43300 (MRSA); experiment: Microbroth dilution MIC (CLSI); format: cell-based; conditions: Staphylococcus aureus
Procedure: as §2, §3

K. pneumoniae ATCC 10031 = experiment: Microbroth dilution MIC (CLSI); format: cell-based; conditions: Klebsiella pneumoniae, ATCC10031
Procedure: as §2, §3

E. faecalis ATCC 29212 = experiment: Microbroth dilution MIC (CLSI); format: cell-based; conditions: Enterococcus faecalis, ATCC29212
Procedure: as §2, §3

[4] = E. coli topo IV, read-out: IC50
[5] = E. coli DNA gyrase, read-out: IC50
[6] = S. aureus DNA gyrase, read-out: IC50
[7] = P. aeruginosa ATCC 27853, read-out: MIC
[8] = S. aureus ATCC 29213, read-out: MIC
[9] = A. baumannii ATCC 17978, read-out: MIC
[10] = S. aureus ATCC 700699 (VISA), read-out: MIC
[11] = E. faecium ATCC 700221, read-out: MIC
[12] = E. spp. cloacae ATCC 13047, read-out: MIC
[13] = E. coli ATCC 25922, read-out: MIC
[14] = S. aureus ATCC 43300 (MRSA), read-out: MIC
[15] = K. pneumoniae ATCC 10031, read-out: MIC
[16] = E. faecalis ATCC 29212, read-out: MIC
[17] = E. coli topo IV, read-out: RA (residual activity of the enzyme)

T1 sequence (P0AFI2 whole entry): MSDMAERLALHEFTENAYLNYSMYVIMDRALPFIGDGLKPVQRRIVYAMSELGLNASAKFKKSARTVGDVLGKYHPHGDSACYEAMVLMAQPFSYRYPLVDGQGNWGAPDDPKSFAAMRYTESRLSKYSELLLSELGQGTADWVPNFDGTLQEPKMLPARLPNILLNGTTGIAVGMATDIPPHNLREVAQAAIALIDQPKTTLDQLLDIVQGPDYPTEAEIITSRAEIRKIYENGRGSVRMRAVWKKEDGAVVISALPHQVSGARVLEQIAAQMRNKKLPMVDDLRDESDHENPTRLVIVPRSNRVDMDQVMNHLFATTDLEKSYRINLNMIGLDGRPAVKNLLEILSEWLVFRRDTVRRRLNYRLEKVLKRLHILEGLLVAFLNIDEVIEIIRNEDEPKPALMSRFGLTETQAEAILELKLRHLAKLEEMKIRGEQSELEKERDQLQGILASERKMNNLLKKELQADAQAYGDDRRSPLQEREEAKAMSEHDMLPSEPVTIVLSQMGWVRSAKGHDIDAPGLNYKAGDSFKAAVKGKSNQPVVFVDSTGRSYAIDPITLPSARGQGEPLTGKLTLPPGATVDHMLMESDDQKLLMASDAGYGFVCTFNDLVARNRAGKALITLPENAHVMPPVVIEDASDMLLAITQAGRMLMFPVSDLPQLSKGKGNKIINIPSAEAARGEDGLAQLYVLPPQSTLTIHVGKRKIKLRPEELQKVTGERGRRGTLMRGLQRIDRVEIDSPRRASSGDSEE
T1 sequence (P20083 whole entry): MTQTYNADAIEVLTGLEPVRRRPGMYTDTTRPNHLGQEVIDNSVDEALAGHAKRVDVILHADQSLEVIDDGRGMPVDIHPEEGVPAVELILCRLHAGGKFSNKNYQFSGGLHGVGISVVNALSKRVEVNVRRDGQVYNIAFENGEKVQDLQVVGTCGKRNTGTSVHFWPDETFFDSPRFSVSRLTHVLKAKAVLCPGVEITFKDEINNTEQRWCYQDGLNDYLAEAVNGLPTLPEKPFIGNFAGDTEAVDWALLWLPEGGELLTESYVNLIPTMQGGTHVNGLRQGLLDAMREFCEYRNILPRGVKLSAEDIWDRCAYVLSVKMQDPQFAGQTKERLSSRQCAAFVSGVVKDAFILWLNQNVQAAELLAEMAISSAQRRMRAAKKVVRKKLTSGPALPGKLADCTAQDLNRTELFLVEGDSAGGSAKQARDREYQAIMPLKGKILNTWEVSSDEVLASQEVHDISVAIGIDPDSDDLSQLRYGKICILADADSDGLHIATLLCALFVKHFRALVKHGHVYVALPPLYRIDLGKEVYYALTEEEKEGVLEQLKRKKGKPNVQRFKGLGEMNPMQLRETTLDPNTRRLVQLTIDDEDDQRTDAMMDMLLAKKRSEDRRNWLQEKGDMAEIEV
T3 sequence (P20831 whole entry): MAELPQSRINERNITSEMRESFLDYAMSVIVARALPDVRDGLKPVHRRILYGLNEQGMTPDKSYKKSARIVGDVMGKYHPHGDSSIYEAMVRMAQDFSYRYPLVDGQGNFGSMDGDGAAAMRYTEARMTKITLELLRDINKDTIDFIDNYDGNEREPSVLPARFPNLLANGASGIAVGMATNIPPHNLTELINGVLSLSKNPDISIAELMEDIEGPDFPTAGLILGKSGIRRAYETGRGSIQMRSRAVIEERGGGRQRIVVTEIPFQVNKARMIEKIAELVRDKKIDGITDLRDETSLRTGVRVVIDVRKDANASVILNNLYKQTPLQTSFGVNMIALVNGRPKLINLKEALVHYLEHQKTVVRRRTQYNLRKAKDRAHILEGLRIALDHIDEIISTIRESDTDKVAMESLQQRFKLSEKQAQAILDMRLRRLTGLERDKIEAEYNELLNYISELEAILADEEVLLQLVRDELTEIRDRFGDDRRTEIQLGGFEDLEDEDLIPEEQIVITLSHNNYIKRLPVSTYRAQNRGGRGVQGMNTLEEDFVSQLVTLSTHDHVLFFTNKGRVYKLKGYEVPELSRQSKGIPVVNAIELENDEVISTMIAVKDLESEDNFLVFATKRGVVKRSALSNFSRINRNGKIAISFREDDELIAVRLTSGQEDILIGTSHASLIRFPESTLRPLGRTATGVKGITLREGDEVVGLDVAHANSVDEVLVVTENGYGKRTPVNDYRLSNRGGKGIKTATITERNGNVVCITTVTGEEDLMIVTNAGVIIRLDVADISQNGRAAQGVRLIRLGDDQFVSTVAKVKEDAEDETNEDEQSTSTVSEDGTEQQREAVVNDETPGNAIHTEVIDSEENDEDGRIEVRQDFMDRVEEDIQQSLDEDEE
T3 sequence (P0A0K8 whole entry): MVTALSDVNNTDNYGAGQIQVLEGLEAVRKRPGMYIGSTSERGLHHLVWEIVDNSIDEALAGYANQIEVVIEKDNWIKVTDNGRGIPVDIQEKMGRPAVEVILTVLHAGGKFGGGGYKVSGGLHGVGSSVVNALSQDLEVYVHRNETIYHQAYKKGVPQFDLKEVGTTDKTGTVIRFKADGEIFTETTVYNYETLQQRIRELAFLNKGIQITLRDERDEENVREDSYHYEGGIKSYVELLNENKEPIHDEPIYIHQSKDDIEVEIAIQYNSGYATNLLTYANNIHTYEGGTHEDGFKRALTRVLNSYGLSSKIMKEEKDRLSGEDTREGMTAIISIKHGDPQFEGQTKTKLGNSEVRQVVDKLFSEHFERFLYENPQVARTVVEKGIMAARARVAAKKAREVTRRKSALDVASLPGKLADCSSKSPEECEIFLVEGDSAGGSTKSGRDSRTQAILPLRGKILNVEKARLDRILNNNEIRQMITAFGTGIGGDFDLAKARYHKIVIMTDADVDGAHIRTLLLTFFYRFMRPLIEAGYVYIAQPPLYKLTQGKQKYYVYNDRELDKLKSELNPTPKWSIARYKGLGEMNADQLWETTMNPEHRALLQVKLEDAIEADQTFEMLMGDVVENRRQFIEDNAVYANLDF

Row | Structure (SMILES) | IC50 (E. coli topoisomerase IV; [4]) [nM] | IC50 (E. coli DNA gyrase; [5]) [nM] | IC50 (S. aureus DNA gyrase; [6]) [nM] | MIC (P. aeruginosa ATCC 27853; [7]) [µg/mL] | MIC (S. aureus ATCC 29213; [8]) [µg/mL] | MIC (A. baumannii ATCC 17978; [9]) [µg/mL] | MIC [1, 10] [µg/mL] | MIC (E. faecium ATCC 700221; [11]) [µg/mL] | MIC [2, 12] [µg/mL] | MIC (E. coli ATCC 25922; [13]) [µg/mL] | MIC [3, 14] [µg/mL] | MIC (K. pneumoniae ATCC 10031; [15]) [µg/mL] | MIC (E. faecalis ATCC 29212; [16]) [µg/mL] | remaining activity at 10 µM (E. coli topoisomerase IV; [17]) [%] | other results
1 | Cc1[nH]c(C(=O)Nc2ccc(-c3noc(=O)[nH]3)cc2N2CCCC(N)C2)c(Cl)c1Cl.Cl (stereo not shown) [Example 2, 1-(2-(3,4-Dichloro-5-methyl-1H-pyrrole-2-carboxamido)-5-(5-oxo-4,5-dihydro-1,2,4-oxadiazol-3-yl)phenyl)piperidin-3-aminium chloride] | 145 | 2.49 | 55.8 | > 64 | > 64 | > 64 | > 64 | 8 | > 64 | > 64 | > 64 | 16 | 8 | – | –
2 | Cc1[nH]c(C(=O)Nc2ccc(-c3noc(=O)[nH]3)cc2N2CCCC(CN)C2)c(Cl)c1Cl.Cl (stereo not shown) [Example 3, (1-(2-(3,4-Dichloro-5-methyl-1H-pyrrole-2-carboxamido)-5-(5-oxo-4,5-dihydro-1,2,4-oxadiazol-3-yl)phenyl)piperidin-3-yl)methanaminium chloride] | 41.8 | 3.19 | 24.1 | > 64 | 4 | > 64 | 2 | 2 | > 64 | > 64 | 4 | 2 | 0.25 | – | –
3 | Cc1[nH]c(C(=O)Nc2ccc(-c3noc(=O)[nH]3)cc2NC2CCNCC2)c(Cl)c1Cl.Cl [Example 4, 4-((2-(3,4-Dichloro-5-methyl-1H-pyrrole-2-carboxamido)-5-(5-oxo-4,5-dihydro-1,2,4-oxadiazol-3-yl)phenyl)amino)piperidin-1-ium chloride] | – | – | – | – | – | – | – | – | – | – | – | – | – | – | IC50 (E. coli topoisomerase IV): 1180 nM; IC50 (E. coli DNA gyrase): 9.66 nM; IC50 (S. aureus DNA gyrase): 249 nM; MIC (P. aeruginosa ATCC 27853): > 64 µg/mL; MIC (S. aureus ATCC 29213): > 64 µg/mL; MIC (A. baumannii ATCC 17978): > 64 µg/mL; MIC [1]: > 64 µg/mL; MIC (E. faecium ATCC 700221): > 64 µg/mL; MIC [2]: > 64 µg/mL; MIC (E. coli ATCC 25922): > 64 µg/mL; MIC [3]: > 64 µg/mL; MIC (K. pneumoniae ATCC 10031): > 64 µg/mL; MIC (E. faecalis ATCC 29212): > 64 µg/mL
4 | Cc1[nH]c(C(=O)Nc2ccc(-c3nn[nH]n3)cc2N2CCCC(CN)C2)c(Cl)c1Cl.Cl (stereo not shown) [Example 9, (1-(2-(3,4-Dichloro-5-methyl-1H-pyrrole-2-carboxamido)-5-(2H-tetrazol-5-yl)phenyl)piperidin-3-yl)methanaminium chloride] | 60.3 | 2.16 | 35 | > 64 | 16 | > 64 | > 64 | 16 | > 64 | > 64 | > 64 | 64 | 8 | – | –
5 | Cc1[nH]c(C(=O)Nc2ccc(-n3nn[nH]c3=O)cc2N2CC[C@H](N)C2)c(Cl)c1Cl.Cl [Example 22, (S)-1-(2-(3,4-Dichloro-5-methyl-1H-pyrrole-2-carboxamido)-5-(5-oxo-4,5-dihydro-1H-tetrazol-1-yl)phenyl)pyrrolidin-3-aminium chloride] | – | 4.9 | 121 | ≥ 32 | ≥ 32 | ≥ 32 | > 64 | ≥ 32 | ≥ 32 | ≥ 32 | ≥ 32 | ≥ 32 | > 64 | 26 | remaining activity at 1 µM (E. coli topoisomerase IV; E. coli topo IV, 1 μM compound, read-out: RA (residual activity of the enzyme)): 97%
6 | Cc1[nH]c(C(=O)Nc2ccc(-n3nn[nH]c3=O)cc2N2Cc3ccccc3C2)c(Cl)c1Cl [Example 25, 3,4-Dichloro-N-(2-(isoindolin-2-yl)-4-(5-oxo-4,5-dihydro-1H-tetrazol-1-yl)phenyl)-5-methyl-1H-pyrrole-2-carboxamide] | – | – | – | > 64 | 16 (≈ 34 µM) | > 64 | > 64 | 0.5 (≈ 1.06 µM) | > 64 | > 64 | > 64 | > 64 | 0.25 (≈ 0.532 µM) | 105 | remaining activity at 10 pM (E. coli DNA gyrase; E. coli DNA gyrase, 0.01 nM compound, read-out: RA (residual activity of the enzyme)): 73%; remaining activity at 0.0001 µM (E. coli DNA gyrase; E. coli DNA gyrase, 0.1 nM compound, read-out: RA (residual activity of the enzyme)): 26%
7 | Cc1[nH]c(C(=O)Nc2ccc(-c3n[nH]c(=O)o3)cc2OCCC2CCNCC2)c(Cl)c1Cl.Cl [Example 29, 4-(2-(2-(3,4-Dichloro-5-methyl-1H-pyrrole-2-carboxamido)-5-(5-oxo-4,5-dihydro-1,3,4-oxadiazol-2-yl)phenoxy)ethyl)piperidin-1-ium chloride] | – | – | – | ≥ 32 | ≥ 32 | ≥ 32 | ≥ 32 | ≥ 32 | ≥ 32 | ≥ 32 | ≥ 32 | ≥ 32 | ≥ 32 | 103 | remaining activity at 0.01 µM (E. coli DNA gyrase; E. coli DNA gyrase, 10 nM compound, read-out: RA (residual activity of the enzyme)): 1%
